Source: patent publication US7557213B2, “Substituted quinolones and methods of use” (ChemoCentryx, Inc., priority 2005, dated 2009)

molecular target: T1, CCXCKR2 receptor (Homo sapiens, UniProt P25106); test: Displacement of 125I-labeled SDF-1 from the CCXCKR2 receptor on MCF-7 and/or CCXCKR2-transfected MDA-MB-435S cells (radioligand binding, filtration); settings: not given
T1 construct: expressed in transfected cells; host or cells: MDA-MB-435S transfected with pcDNA3.1(+)-hRDC1 and/or MCF-7 (endogenous receptor)
T1 sequence (P25106 whole entry): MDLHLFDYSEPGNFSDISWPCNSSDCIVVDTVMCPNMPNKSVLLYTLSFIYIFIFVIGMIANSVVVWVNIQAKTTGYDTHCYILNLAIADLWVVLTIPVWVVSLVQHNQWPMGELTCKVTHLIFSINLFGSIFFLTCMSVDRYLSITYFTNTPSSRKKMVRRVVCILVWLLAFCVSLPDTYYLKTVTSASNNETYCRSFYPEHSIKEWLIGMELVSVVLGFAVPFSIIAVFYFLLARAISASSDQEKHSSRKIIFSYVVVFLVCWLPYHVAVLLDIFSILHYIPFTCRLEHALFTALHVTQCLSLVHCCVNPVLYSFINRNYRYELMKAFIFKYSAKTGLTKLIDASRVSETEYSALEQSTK

Compound | IC50 [nM]
Cc1ccc(C(=O)c2cn(Cc3cccc(F)n3)c3ccccc3c2=O)cc1C [Example 70] | < 100

same assay, conditions: 125I SDF-1, 3 hr at 4° C., MCF-7 and/or MDA-MB-435S cells; read-out: Activity (concentration displacing at least 50% of the SDF-1 from the CCXCKR2 receptor)

Compound | IC50 [nM]
Cc1ccc(C(=O)c2cn(Cc3cccc(Br)n3)c3ccccc3c2=O)nc1C [Example 64] | < 100
Cc1ccc(C(=O)c2cn(Cc3ccc(C(F)(F)F)o3)c3ccccc3c2=O)cc1C [Example 65] | < 100
Cc1ccc(C(=O)c2cn(Cc3cccc(C(F)(F)F)n3)c3ccccc3c2=O)cc1C [Example 66] | < 100
Cc1cc(C(=O)c2cn(Cc3cccc(Br)n3)c3ccc(F)cc3c2=O)cnc1C [Example 67] | < 100
Cc1ccc(C(=O)c2cn(Cc3cccc(N4CCCCC4)n3)c3ccccc3c2=O)cc1C [Example 68] | < 100
COc1cccc(Cn2cc(C(=O)c3ccc(C)c(C)c3)c(=O)c3ccccc32)n1 [Example 69] | < 100
Cc1ccc(C(=O)c2cn(Cc3cccc(N4CCOCC4)n3)c3ccccc3c2=O)cc1C [Example 71] | 100 to 500
Cc1ccc(C(=O)c2c(C)n(Cc3cccc(Br)n3)c3ccccc3c2=O)cc1C [Example 72] | 500 to 20000
Cc1ccc(C(=O)c2cn(Cc3cccc(Br)n3)c3cc(F)c(F)cc3c2=O)cc1C [Example 73] | < 100
Cc1ccc(C(=O)c2cn(Cc3cccc(C4CC4)n3)c3ccccc3c2=O)cc1C [Example 74] | < 100
Cc1ccc(C(=O)c2cn(C(C)c3cccc(Br)n3)c3ccccc3c2=O)cc1C (stereo not drawn) [Example 75] | < 100
Cc1ccc(C(=O)c2cn(C(C)c3cccc(Br)n3)c3ccccc3c2=O)nc1C (stereo not drawn) [Example 76] | < 100
CSc1cccc(Cn2cc(C(=O)c3ccc(C)c(C)c3)c(=O)c3ccccc32)n1 [Example 77] | < 100
Cc1ccc(C(=O)c2cn(Cc3cccc(S(C)(=O)=O)n3)c3ccccc3c2=O)cc1C [Example 78] | 100 to 500
Cc1ccc(C(=O)c2cn(Cc3cccc(C(F)(F)F)n3)c3ccccc3c2=O)nc1C [Example 79] | < 100
Cc1ccc(C(=O)c2cn(Cc3cccc(C#N)n3)c3ccccc3c2=O)nc1C [Example 80] | < 100

Compound | IC50 [nM]
Cc1ccc(C(=O)c2cn(Cc3cccc(C#N)n3)c3ccccc3c2=O)cc1C [Example 81] | < 100
Cc1cc(C(=O)c2cn(Cc3cccc(C(F)(F)F)n3)c3ccccc3c2=O)cnc1C [Example 82] | < 100
Cc1ccc(C(=O)c2cn(Cc3cccc(C(=O)O)n3)c3ccccc3c2=O)cc1C [Example 83] | 500 to 20000
Cc1cc(C(=O)c2cn(C(C)c3cccc(Br)n3)c3ccccc3c2=O)cnc1C (stereo not drawn) [Example 84] | 500 to 20000
Cc1cc(C(=O)c2cn(Cc3cccc(C#N)n3)c3ccccc3c2=O)cnc1C [Example 85] | < 100
Cc1ccc(C(=O)c2cn(Cc3cccc(C(N)=O)n3)c3ccccc3c2=O)cc1C [Example 86] | 500 to 20000
Cc1ccc(C(=O)c2cn(Cc3cccc(NC(=O)C(F)(F)F)n3)c3ccccc3c2=O)cc1C [Example 87] | < 100
Cc1ccc(C(=O)c2cn(Cc3cccc(Br)[n+]3[O-])c3ccccc3c2=O)cc1C [Example 88] | 100 to 500
O=C(c1ccc2c(n1)CCCC2)c1cn(Cc2cccc(Br)n2)c2ccccc2c1=O [Example 89] | < 100
Cc1ccc(C(=O)c2cn(Cc3cccc(N)n3)c3ccccc3c2=O)nc1C [Example 90] | < 100
Cc1cc(C(=O)c2cn(Cc3cccc(N)n3)c3ccccc3c2=O)cnc1C [Example 91] | < 100
Cc1ccc(C(=O)c2cn(Cc3cccc(N(C)C)n3)c3ccccc3c2=O)cc1C [Example 92] | 500 to 20000
CNc1cccc(Cn2cc(C(=O)c3ccc(C)c(C)c3)c(=O)c3ccccc32)n1 [Example 93] | < 100
Cc1cnc(C(=O)c2cn(Cc3cccc(Br)n3)c3ccccc3c2=O)cc1C [Example 94] | < 100
Cc1ccc(C(=O)c2cn(Cc3ccccc3-c3cncnc3)c3ccccc3c2=O)cc1C [Example 95] | 500 to 20000
Cc1cccc(Cn2cc(C(=O)c3ccc(C)c(C)n3)c(=O)c3ccccc32)n1 [Example 96] | < 100
